Reference: patent US8586533B2, “Treatment of early-stage osteoarthritis” (Kaohsiung Medical University, priority 2008, dated 2013)

What was measured:
Assay type in all cases: cell-based
[1] = test system: human articular chondrocytes; test: Quantitative real-time PCR of mRNA levels in azaC-induced terminal differentiation culture model; conditions: azaC group
Experimental: Chondrocyte cultures were divided into 4 groups. […] Louis, Mo.) for 48 hours.

[2] = test system: human articular chondrocytes; test: Dimethylmethylene blue (DMMB) assay of GAG levels in chondrocyte cultures; conditions: azaC group, 3 and 7 days after azaC induction, P<0.01
Experimental: (§1) Chondrocyte cultures were divided into 4 groups.
Alginate beads were dissolved as described above and further digested by papain (300 μg/ml) at 60° C. for 18 hours. The levels of DNA and sulfated glycosaminoglycan (GAG) in the samples were quantified using Hoechst 33258 dye and 1,9-dimethylmethylene blue dye, respectively. A standard curve for the DMMB assay was generated using aqueous chondroitin sulfate C solution (Sigma-Aldrich, St. Louis, Mo.) at concentrations ranging from […].

[3] = test system: human articular chondrocytes; test: TUNEL staining, rate of apoptosis in chondrocyte cultures; conditions: azaC cultures, 14 days, P<0.01
Experimental: as §1
We measured apoptotic cells using the TUNEL (terminal deoxy-nucleotidyl transferase mediated dUTP nick end labeling) staining method using the In Situ Cell Death Detection Kit, TMR red (Roche, Mannheim, Germany). Following the manufacturer's guidelines, cells were fixed with 4% paraformaldehyde in phosphate buffered saline (PBS) at a cell density of 1×10^6/ml and incubated at room temperature for 10 minutes, and then settled on a slide by centrifugation at a speed of 2,000 rpm for 5 minutes using a cytospin (Cytospin 3; Shandon, Cheshire, UK). Slides were rinsed twice with PBS, and the cells were permeabilized by incubating in permeabilization solution (0.1% Triton X-100 in 0.1% sodium citrate) for 2 minutes on ice. The TUNEL reaction mixture containing terminal deoxynucleotidyl transferase and rhodamine (the labeling dye) was added to the slides and incubated at 37° C. in a humidified chamber in the dark for 60 minutes. The reaction was stopped by a blocking buffer (0.1% Triton X-100/0.5% bovine serum albumin in PBS). Cells were counterstained by 4′,6-diamidino-2-phenylindole (DAPI). The slides were observed under a fluorescence microscope with an excitation wavelength of 580 nm for rhodamine and 365 nm for DAPI. Cell nuclei were stained blue by DAPI, and only apoptotic cells were stained red by rhodamine. Stained cells were counted in 5 microscopic fields (1.566 mm^2/field) on each slide. Data were analyzed using Image-Pro Plus analysis software (Media Cybernetics, Silver Spring, Md.). The rate of apoptosis in chondrocytes was defined as the ratio of red-stained cells (apoptotic cells) to blue-stained cells (total cells).
By using TUNEL staining, the rate of apoptosis in human articular chondrocyte cultures in the control, azaC, and azaC plus PTH groups were compared after 14 days of PTH(1-34) treatment (for the azaC plus PTH group).

[4] = 7 and 10 days after azaC induction, P<0.01
[5] = after 3 days of azaC induction, P<0.01
[6] = after 7 days of azaC induction, P<0.05

Nc1ncn([C@@H]2O[C@H](CO)[C@@H](O)[C@H]2O)c(=O)n1 [azaC, 5-azacytidine]
ALP mRNA level [1, 4]: 5.3-10.9 times that of control | Col10a1 mRNA level [1, 4]: 2.3-2.4 times that of control | Bax expression ([1]; 14 days after azaC induction, P<0.01): 2.1 times that of control | aggrecan mRNA level ([1]; after 3 days of azaC induction (15 μg/ml, 48 hours), P<0.05): 56 % of control | Col2a1 mRNA level [1, 5]: 46.3 % of control | IHH expression [1, 5]: 6.5 times that of control | Bcl-2 mRNA level ([1]; after 3 days, P<0.05): 3.2 times that of control | aggrecan mRNA level ([1]; after 7 days of azaC induction, P<0.01): 31 % of control | Col2a1 mRNA level [1, 6]: 64.8 % of control | IHH expression [1, 6]: 2.6 times that of control | IHH expression ([1]; after 10 days of azaC induction, P<0.05): 2.7 times that of control | Bcl-2 mRNA level ([1]; after 10 days, P<0.01): 4.7 times that of control | GAG levels versus control [2]: significantly lower | rate of apoptosis versus control cultures [3]: 4.8 fold increase
